Test results: patent publication US5158939A, “Method of stimulating the immune systems of animals and compositions useful therefor” (priority 1990, dated 1992)
“Also recorded” adds a separate entry of the source.

What was measured:
peritoneal macrophages = assay: Induction of IL-1 in thioglycollate-elicited peritoneal macrophages (comitogenic thymocyte assay); assay type: cell-based, BDF1 mice; conditions: for IL-1 induction, CPM: SD in parentheses; for induction of IL-1 release: DPLA alone 0.1, 1.0, 10 μg/ml
Protocol: 1L-1 assay--Peritoneal exudate cells were harvested from BDF1 mice 48 h after an intraperitoneal injection of thioglycollate. […] Macrophages were either pretreated with R. sphaeroides DPLA (0.1-10 μg/ml) followed by the addition of toxic Re LPS (0.1 μg) after 2 h, or immediately stimulated with Re LPS (0.01-1.00 μg/ml). Control wells were treated with 10 μl of media containing 0.5% triethylamine. Cultures were incubated at 37° C. in the presence of 5% CO2 for 18 h at which time the supernatants were collected and frozen at -20° C. until assayed. 1L-1 activity was determined by the comitogenic thymocyte assay.^25
Peritoneal exudate cells were harvested from BDF1 mice 48 h after an intraperitoneal injection of thioglycollate as described previously (Lederer and Czuprynki). Macrophages were either pretreated with R. sphaeroides DPLA (0.1-10 μg/ml) followed by addition of toxic ReLPS (0.1 μg), or immediately stimulated with ReLPS (0.01-1.00 μg/ml). Control wells were treated with 10 μl of media with 0.5% triethylamine. Cultures were incubated at 37° C. in the presence of 5% CO2 for 18 h at which time the supernatants were collected and frozen at -20° C. until assayed.
ReLPS was added to the culture 2 h after adding the R. sphaeroides DPLA. […] Standard deviation in CPM are given in parentheses.

RAW 264.7 cells = assay: TNF production by RAW 264.7 cells, dilution for 50% killing of indicator cell line L929; assay type: cell-based, murine; conditions: for Dilution to get 50% killing: Table 1
Protocol: The TNF unit is derived by determining how far one can dilute the supernatant of the culture to achieve 50% killing of an indicator cell line.
TNF unit was derived by determining dilution of culture supernatant that kills 50 percent of the indicator cell line.
DPLA was added 2 hours before exposing culture to ReLPS. The ReLPS and DPLA were complexed with bovine serum albumin.^1

[1] = system: RAW 264.7 murine macrophage cells; conditions: as reported; cited from earlier work

## CCCCCCC=CCCCCCC(=O)OC(CCCCCCCCCCC)CC(=O)NC1C(OCC2OC(OP(=O)(O)O)C(NC(=O)CC(=O)CCCCCCCCCCC)C(OC(=O)CC(O)CCCCCCC)C2O)OC(CO)C(OP(=O)(O)O)C1OC(=O)CC(O)CCCCCCC (stereo not shown) [DPLA]
Peritoneal macrophages; DPLA 0.1 μg/ml 2 h before ReLPS 0.1 μg/ml
  IL-1 induction, CPM: 51,999 (4860) CPM
Peritoneal macrophages; DPLA 0.1 μg/ml + ReLPS 0.1 μg/ml
  IL-1 induction, CPM - Blank: 44,211 CPM
Peritoneal macrophages; DPLA 1.0 μg/ml 2 h before ReLPS 0.1 μg/ml
  IL-1 induction, CPM: 28,276 (4860) CPM
Peritoneal macrophages; DPLA 1.0 μg/ml + ReLPS 0.1 μg/ml
  IL-1 induction, CPM - Blank: 20,491 CPM
Peritoneal macrophages; DPLA 10.0 μg/ml 2 h before ReLPS 0.1 μg/ml
  IL-1 induction, CPM: 5,892 (886) CPM
Peritoneal macrophages; DPLA 10.0 μg/ml + ReLPS 0.1 μg/ml
  IL-1 induction, CPM - Blank: 0 CPM
Peritoneal macrophages; DPLA 10.0 μg/ml, ReLPS 0.1 μg/ml (1:100)
  % Inhibition of IL-1 induction by ReLPS: total
Peritoneal macrophages; DPLA alone 0.1 μg/ml
  IL-1 induction, CPM - Blank: 0 CPM
  IL-1 induction, CPM: 3,511 (616) CPM
Peritoneal macrophages; DPLA alone 1.0 μg/ml
  IL-1 induction, CPM - Blank: 0 CPM
  IL-1 induction, CPM: 2,911 (383) CPM
Peritoneal macrophages; DPLA alone 10.0 μg/ml
  IL-1 induction, CPM - Blank: 0 CPM
  IL-1 induction, CPM: 3,764 (785) CPM
Peritoneal macrophages; in words
  induction of IL-1 release: unable to induce interleukin-1 release; also recorded: no IL-1/releasing activity
  blocking of ReLPS-induced IL-1 release: blocked this activity by toxic deep rough chemotype LPS; also recorded: antogonize the induction of IL-1 release by toxic Re LPS; also recorded: blocked the release of IL-1
Peritoneal macrophages; in words, listed as pentaacyl DPLA
  induction of IL-1 release: unable to induce 1L-1
RAW 264.7 cells; DPLA alone 10^4 ng/ml
  induction of TNF: measurable but low level in the induction of TNF
RAW 264.7 cells; Mus musculus, RAW264.7, Table 3, DPLA 10 ng/ml, ReLPS 1.0 ng/ml (ReLPS:DPLA 1:10), read-out: Inhibition of induction of TNF by ReLPS
  inhibition at 0.01 µg/mL: 55%
RAW 264.7 cells; Mus musculus, RAW264.7, Table 3, DPLA 100 ng/ml, ReLPS 1.0 ng/ml (1:100), read-out: Inhibition of induction of TNF by ReLPS
  inhibition at 0.1 µg/mL: 95%
RAW 264.7 cells; Mus musculus, RAW264.7, Table 3, DPLA 10000 ng/ml, ReLPS 1.0 ng/ml (1:10^4), read-out: Inhibition of induction of TNF by ReLPS
  inhibition at 10 µg/mL: 81%
RAW 264.7 cells; RAW 264.7 cells, indicator cell line L929
  induction of TNF: not effective in the induction of TNF; also recorded: lack of induction
RAW 264.7 cells; RAW 264.7 cells, in words
  blocking of TNF induction by ReLPS: effectively antagonize the induction of TNF by toxic ReLPS in a dose-dependent manner; also recorded: block the induction of cachectin (TNF); also recorded: blocking of induction
RAW 264.7 cells; DPLA 10 ng/ml 2 h before ReLPS 1.0 ng/ml
  Dilution to get 50% killing: 829
RAW 264.7 cells; DPLA 100 ng/ml 2 h before ReLPS 1.0 ng/ml
  Dilution to get 50% killing: 112
RAW 264.7 cells; DPLA 1000 ng/ml 2 h before ReLPS 1.0 ng/ml
  Dilution to get 50% killing: 86
RAW 264.7 cells; DPLA 10,000 ng/ml 2 h before ReLPS 1.0 ng/ml
  Dilution to get 50% killing: 234
RAW 264.7 cells; DPLA alone 10 ng/ml
  Dilution to get 50% killing: 0
RAW 264.7 cells; DPLA alone 100 ng/ml
  Dilution to get 50% killing: 0
RAW 264.7 cells; DPLA alone 1000 ng/ml
  Dilution to get 50% killing: 71
RAW 264.7 cells; DPLA alone 10,000 ng/ml
  Dilution to get 50% killing: 346
RAW 264.7 cells; Table 3, DPLA 10 ng/ml 2 h before ReLPS 1.0 ng/ml
  Dilution for 50% killing: 2287
RAW 264.7 cells; Table 3, DPLA 100 ng/ml 2 h before ReLPS 1.0 ng/ml
  Dilution for 50% killing: 269
RAW 264.7 cells; Table 3, DPLA 1000 ng/ml 2 h before ReLPS 1.0 ng/ml
  Dilution for 50% killing: 201
RAW 264.7 cells; Table 3, DPLA 10000 ng/ml 2 h before ReLPS 1.0 ng/ml
  Dilution for 50% killing: 973
RAW 264.7 cells; Table 3, DPLA alone 10 ng/ml, complexed with BSA
  Dilution for 50% killing: < 10
RAW 264.7 cells; Table 3, DPLA alone 100 ng/ml, complexed with BSA
  Dilution for 50% killing: 19
RAW 264.7 cells; Table 3, DPLA alone 1000 ng/ml, complexed with BSA
  Dilution for 50% killing: 201
RAW 264.7 cells; Table 3, DPLA alone 10000 ng/ml, complexed with BSA
  Dilution for 50% killing: 764
[1]
  blocking of LPS-induced TNF: competes successfully with toxic LPS to block the induction of TNF in a dose-dependent manner
  induction of TNF: fails to induce the synthesis and release of TNF by macrophages
